Assays:
[1] = system: SH-SY5Y cells; experiment: Cell penetration efficiency in human neuroblastoma cells, 4 μM, flow cytometry; type: cell-based; details: one hour; for cell permeability compared with TAT: 4 μM FITC-conjugated CPP, flow cytometry; for Score / Score/TAT: 4 μM FITC-conjugated peptide; for Score: intracellular fluorescence by flow cytometry; for Score/TAT: ratio to FITC-conjugated TAT
Protocol: The cell penetration efficiency of the cationic CPPs selected in Example 1 was evaluated in neuroblastoma. In further detail, SH-SYSY cells, which is a human neuroblastoma cell line, were seeded in 24-well plates to have a cell density of 1×10^7 cells/well, and cultured in 10% FBS-added DMEM under conditions of 37° C. and 5% CO2 for 24 hours. In addition, the cells were treated with 4 μM each of FITC-conjugated CPPs (C12, C14, C16, C31, C52, and C67), or FITC-conjugated TAT, and incubated for one hour. After the termination of the incubation, the cells were transferred to a sterile tube using 0.25% trypsin and centrifuged to remove the medium. Afterward, the cells were washed with 500 μL of D-PBS twice to completely remove the medium, and finally, resuspended in 400 μL of D-PBS and intracellular fluorescence was measured by flow cytometry (FACSCanto II).
(§1) To evaluate the cell penetration efficiency of the additionally selected cationic CPPs, an experiment was conducted using human epidermal cells or human neuroblastoma cells. In further detail, HaCAT cells, which is a human epidermal cell line, or SH-SYSY cells, which is a human neuroblastoma cell line, were seeded in 24-well plates to have a cell density of 1×10^7 cells/well and cultured in 10% FBS-added DMEM under conditions of 37° C. and 5% CO2 for 24 hours. In addition, the cells were treated with 4 μM each of FITC-conjugated peptides and FITC-conjugated TAT for one hour. After the completion of the culture, the cells were transferred to a sterile tube using 0.25% trypsin and centrifuged to remove the medium. Afterward, the cells were washed with 500 μL of D-PBS twice to completely remove the medium, and finally, resuspended in 400 μL of D-PBS and intracellular fluorescence was measured by flow cytometry (FACSCanto II).
(§2) Subsequently, to confirm whether the CPPs according to the present invention show excellent cell permeability into different types of cells/tissues, various tissue-derived cells were treated with biologically active molecule-conjugated CPPs to compare its delivery capacity with TAT. As in the previous examples, each cell was aliquoted in a plate at an appropriate density, and cultured in a 10% FBS-added medium under a condition of 37° C. and 5% CO2 for 24 hours. Subsequently, the cells were treated with 4 μM each of FITC-conjugated CPP or FITC-conjugated TAT and incubated for one hour. After the completion of the incubation, the cells were transferred to a sterile tube using 0.25% trypsin and centrifuged to remove the medium. Afterward, the cells were washed with 500 μL of D-PBS twice to completely remove the medium, and finally, resuspended in 400 μL of D-PBS and intracellular fluorescence was measured by flow cytometry (FACSCanto II).

[2] = system: HeLa cell line; experiment: Cell penetration efficiency using cervical cancer cells; type: cell-based; details: 4 μM FITC-conjugated CPP, one hour
Protocol: as §2

[3] = system: A-427 cell line; experiment: Cell penetration efficiency using lung cells; type: cell-based; details: A-427 lung cells, 4 μM FITC-conjugated CPP, one hour
Protocol: as §2

[4] = system: HT1080 cell line; experiment: Cell penetration efficiency using connective tissue (fibrosarcoma) cells; type: cell-based; details: 4 μM FITC-conjugated CPP, one hour
Protocol: as §2

[5] = system: HaCAT cells; experiment: Cell penetration efficiency in human epidermal (skin) cells, 4 μM, flow cytometry; type: cell-based; details: 4 μM FITC-conjugated CPP, one hour
Protocol: The cell penetration efficiency of the cationic CPPs selected in Example 1 was evaluated using human epidermal cells. In further detail, HaCAT cells, which is a human epidermal cell line, were seeded in 24-well plates to have a cell density of 1×10^7 cells/well, and cultured in 10% FBS-added DMEM under conditions of 37° C. and 5% CO2 for 24 hours. Subsequently, the cells were treated 4 μM each of the FITC-conjugated CPP or FITC-conjugated TAT, and incubated for one hour. After the termination of the incubation, the cells were transferred to a sterile tube using 0.25% trypsin, and the medium was removed through centrifugation. Afterward, the cells were washed with 500 μL of D-PBS twice to completely remove the medium, and finally, resuspended in 400 μL of D-PBS and intracellular fluorescence was measured by flow cytometry (FACSCanto II).
as §1, §2

[6] = system: HGB cell line; experiment: Cell penetration efficiency in glioblastoma cells; type: cell-based, human; details: 4 μM FITC-conjugated CPP, one hour
Protocol: as §2

[7] = system: HEK293T cell line; experiment: Cell penetration efficiency using kidney cells; type: cell-based; details: 4 μM FITC-conjugated CPP, one hour
Protocol: as §2

[8] = system: SNU-46 cell line; experiment: Cell penetration efficiency using laryngeal cells; type: cell-based; details: SNU-46 laryngeal cells, 4 μM FITC-conjugated CPP, one hour
Protocol: as §2

[9] = system: HDF cell line; experiment: Cell penetration efficiency in skin cells (HDF); type: cell-based; details: 4 μM FITC-conjugated CPP, one hour
Protocol: as §2

Row | Sequence | cell permeability compared with TAT [1] | Score [1] | Score/TAT [1] | cell permeability compared with TAT [2] | cell permeability compared with TAT [3] | cell permeability compared with TAT [4] | cell permeability compared with TAT [5] | cell permeability compared with TAT [6] | cell permeability compared with TAT [7] | cell permeability compared with TAT [8] | cell permeability compared with TAT [9]
1 | AIKRRRRRALAKRP [C148] | higher cell permeability | 669 | 1.289 | higher cell permeability | – | – | – | – | – | – | –
2 | ARKNRMARQRRLRP [C45] | higher cell permeability | 570 | 1.098 | – | higher cell permeability | higher cell permeability | – | – | – | – | –
3 | ARRLRRRTAKLPAR [C102] | higher cell permeability | 720 | 1.387 | – | – | – | higher cell permeability | higher cell permeability | – | – | –
4 | ARVRARLRRRRIEP [C229] | higher cell permeability | 536 | 1.033 | higher cell permeability | – | – | – | – | higher cell permeability | – | –
5 | AVKRRRRRALAKRP [C149] | higher cell permeability | 657 | 1.266 | – | – | – | – | – | – | – | –
6 | KARARRILRRREAP [C191] | higher cell permeability | 592 | 1.141 | higher cell permeability | – | – | – | higher cell permeability | – | – | –
7 | KARARRILRRRETP [C190] | higher cell permeability | 579 | 1.116 | – | – | – | – | higher cell permeability | – | – | –
8 | LDRERRRKKAERRP [C312] | – | 271 | 0.522 | – | – | – | – | – | – | – | –
9 | LRRVETLRRRKQPR [C319] | – | 436 | 0.840 | higher cell permeability | – | – | – | – | higher cell permeability | – | –
10 | RALKLRRRRRAVLP [C68] | – | 0 | 0.000 | – | – | – | – | – | – | – | –
11 | RALRRRAARAARRP [C37] | – | 0 | 0.000 | – | – | – | – | – | – | – | –
12 | RALRRRLHRQRKLP [C355] | – | 497 | 0.958 | higher cell permeability | – | – | – | higher cell permeability | higher cell permeability | – | –
13 | RERKRAARKKIKKP [C210] | – | 386 | 0.744 | – | – | – | – | – | – | – | –
14 | RERKRANRKKLKKP [C310] | – | 452 | 0.871 | – | – | – | – | higher cell permeability | higher cell permeability | – | –
15 | RIRALARRRDRRRP [C354] | higher cell permeability | 564 | 1.087 | higher cell permeability | higher cell permeability | higher cell permeability | – | higher cell permeability | higher cell permeability | – | –
16 | RKVLPRKQKRKRVK [C214] | – | 459 | 0.884 | higher cell permeability | – | – | – | – | – | – | –
17 | RLKEERLKKRRRSP [C264] | – | 268 | 0.516 | – | – | – | – | – | – | – | –

Row | Sequence | cell permeability compared with TAT [1] | Score [1] | Score/TAT [1] | cell permeability compared with TAT [2] | cell permeability compared with TAT [3] | cell permeability compared with TAT [4] | cell permeability compared with TAT [5] | cell permeability compared with TAT [6] | cell permeability compared with TAT [7] | cell permeability compared with TAT [8] | cell permeability compared with TAT [9]
18 | RLRAIRRRRRSLDP [C219] | – | 453 | 0.873 | higher cell permeability | – | – | – | – | – | – | –
19 | RLREKRRSLKRKRP [C262] | – | 345 | 0.665 | higher cell permeability | higher cell permeability | higher cell permeability | – | – | higher cell permeability | – | –
20 | RPIRKLVRKAREKR [C168] | higher cell permeability | 608 | 1.171 | – | – | – | – | higher cell permeability | – | – | –
21 | RPRRKKQAKRLGKR [C378] | – | 400 | 0.771 | higher cell permeability | – | – | – | – | – | higher cell permeability | –
22 | RPRRKKQVKRIGKR [C379] | – | 391 | 0.753 | higher cell permeability | – | – | – | – | – | – | –
23 | RRALKRRAMRARRP [C170] | higher cell permeability | 605 | 1.166 | higher cell permeability | – | – | – | higher cell permeability | – | – | higher cell permeability
24 | RRKVVREKRKRKLP [C203] | higher cell permeability | 544 | 1.048 | higher cell permeability | – | – | – | – | – | – | –
25 | RRREPLRARARVRR [C387] | higher cell permeability | 560 | 1.079 | higher cell permeability | – | – | – | – | higher cell permeability | – | –
26 | RRRQRKEKVRNQKP [C57] | – | 0 | 0.000 | – | – | – | – | – | – | – | –
27 | RSPARKRVRAQKKR [C360] | – | 388 | 0.748 | – | – | – | – | – | – | – | –
28 | RVAALLRRRRRERP [C202] | higher cell permeability | 727 | 1.401 | higher cell permeability | – | higher cell permeability | – | higher cell permeability | – | – | –
29 | RVRAILRRTRRKEP [C236] | – | 395 | 0.761 | higher cell permeability | – | higher cell permeability | – | – | higher cell permeability | – | –
30 | RVRALARRRRQARP [C282] | – | 441 | 0.850 | higher cell permeability | higher cell permeability | higher cell permeability | – | – | higher cell permeability | – | –
31 | RVRSLARRARRRTP [C401] | – | 425 | 0.819 | – | higher cell permeability | higher cell permeability | – | – | – | – | –
32 | RVRTLLRRRRTERP [C402] | – | 437 | 0.842 | – | higher cell permeability | higher cell permeability | – | – | – | – | –
33 | SVKRRRRRALAKRP [C341] | higher cell permeability | 747 | 1.439 | higher cell permeability | – | higher cell permeability | – | higher cell permeability | higher cell permeability | – | –
34 | YLRRKLRRRAGEPR [C230] | – | 305 | 0.588 | higher cell permeability | – | – | – | – | higher cell permeability | – | –
